# Read-outs that look alike come from different tables or passages of the source.
# Columns and labels:
# STAT1 = details: liver homogenates, five hours after LPS/D-GalN
# Description: (§1) Immunoblots of cleaved caspase-3 and phospho-STAT proteins: Liver homogenates were prepared from male mice five hours after IP administration of LPS/D-GalN. […] Glyceraldehyde-3-phosphate dehydrogenase (GAPDH—Chemicon, Milano, Italy) was used as a loading control).
# STAT3 = details: liver homogenates; both LPS/D-GalN treated and untreated mice
# Description: as §1
# caspase-3 = details: mouse, in vivo
# Description: as §1
# IL-6 = details: 3 hours after LPS/D-GalN; without MSO peak 401±14 at two hours
# Excerpt: (§2) FIG. 6A, FIG. 6B, and FIG. 6C illustrate ELISA quantitation cytokine levels in plasma from LPS/D-GalN treated mice. The time zero values show the levels of each cytokine in negative control mice, not treated with LPS/D-GalN but injected with either saline (n=7) or MSO (n=7) three hours prior to be killed. […] For each cytokine, open circles represent cytokine levels in plasma isolated from mice pretreated with saline, and open diamonds represent cytokine levels in plasma isolated from mice pretreated with MSO prior to LPS/D-GalN treatment. FIG. 6A illustrates TNF-α levels. FIG. 6B illustrates IFN-γ levels. FIG. 6C illustrates IL-6 levels; and
# (§3) Tissue and plasma were collected from male mice, which were divided into two groups. One group was injected with saline three hours prior to LPS/D-GalN injections. The second group was given MSO three hours prior to being injected with LPS/D-GalN. Control mice (t=0) were treated with MSO or saline for 3 hours and then euthanized (not exposed to LPS/D-GalN). After LPS/D-GalN injection at time zero, tissue and plasma samples were collected at one-hour time intervals from 1 to 5 hours.
# (§4) Plasma was obtained by transferring blood to plasma separator tubes containing lithium heparin (BD Microtainer tubes). Plasma samples were immediately frozen on dry ice and stored at −80° C.
# (§5) TNF-α, IFN-γ, and IL-6 ELISA kits were obtained from eBioscience, and experiments were performed using the manufacturer's guidelines for 96-well plate experiments. One hundred microliters of plasma was used per well.
# TNF-α = system: TNF-α
# Excerpt: as §2, §3, §4, §5
# peritoneal macrophages [1] = details: 9 mM MSO, over the time course of the macrophage experiments
# Description: (§6) Macrophages coordinate the early phases of LPS-induced inflammatory response, through the synthesis of TNF-α and other cytokines. In vitro experiments were conducted to directly test if MSO inhibits TNF-α production on LPS-stimulated macrophages obtained from mouse peritoneum. Macrophages were triggered with LPS with or without MSO, wherein the MSO was added either three hours before, one hour after, or at the same time as LPS. Four hours after LPS addition, TNF-α in the culture supernatant was quantitated by ELISA, as described in Methods.
# glutamine synthetase = molecular target: T1, glutamine synthetase (Mus musculus, UniProt P15105); test: Glutamine synthetase activity in liver extracts of treated mice; assay type: in vivo
# T1 construct: liver homogenates were prepared from liver tissue excised and immediately homogenized; from tissue; host or cells: mouse liver homogenate supernatant
# T1 sequence (P15105 2-373 limits assumed): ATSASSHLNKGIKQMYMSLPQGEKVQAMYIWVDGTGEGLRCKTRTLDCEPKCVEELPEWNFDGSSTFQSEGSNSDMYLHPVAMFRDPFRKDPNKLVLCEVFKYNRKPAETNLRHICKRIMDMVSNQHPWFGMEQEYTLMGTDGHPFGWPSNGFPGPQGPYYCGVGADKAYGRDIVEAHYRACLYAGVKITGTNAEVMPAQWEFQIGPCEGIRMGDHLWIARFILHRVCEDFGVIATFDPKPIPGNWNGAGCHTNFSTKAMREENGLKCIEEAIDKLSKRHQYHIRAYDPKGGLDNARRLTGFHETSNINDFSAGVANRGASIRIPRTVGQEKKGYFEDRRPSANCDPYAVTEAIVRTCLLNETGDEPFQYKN
# Description: as §3
# To analyze enzyme activities liver homogenates were prepared from liver tissue excised and immediately homogenized in ice-cold buffer consisting of 250 mM sucrose, 10 mM Tris and 0.1 mM EGTA with protease inhibitor cocktail (Sigma #P8340). The homogenized tissue was centrifuged at 2375×g for 5 min. The tissue supernatant fraction was frozen on dry ice and stored at −80° C.
# Glutamine synthetase was assayed as described by Meister, A. Glutamine synthetase from mammalian tissues. […] The reaction with the substrates glutamine and hydroxylamine was stopped using ferric chloride stop solution (0.37 M FeCl3, 0.67 M HCl, 0.20 M TCA) and the colorimetric product formed—γ-glutamyl hydroxamate—was measured at 535 nm. The absorbance values were converted to activities by comparison to a standard curve of pure glutamyl hydroxamate (a generous gift from Arthur J. Cooper, Department of Biochemistry and Molecular Biology, New York Medical College).
# [2] = system: CD1 mice treated with LPS/D-GalN; test: Survival of mice with LPS/D-GalN induced acute liver failure; assay type: in vivo, mouse; details: 50 mg/kg IP three hours prior to LPS/D-GalN
# Excerpt: Six to eight week old CD1 mice are obtained from Charles River. Animals were housed in Wayne State University or University of Padova, Vallisneri Interdepartmental Complex animal quarters until the time of the experiment. Food was withdrawn the night before the day of the experiment. All experiments were approved by the Animal Investigation Committee of Wayne State University or by the Authority of the University of Padova and authorized by the Italian Ministry of Health.
# Animals were divided into two groups. Group one animals consisted of both male and female mice injected with LPS and D-GalN to induce hepatic failure. Survival was monitored post LPS/D-GalN administration and the time of injection was considered to be zero hour (t=0). Group two animals consisted of mice injected with MSO three hours prior to LPS and D-GalN administration. […] […] For analysis of the effect of MSO treatment on the cell death pathway activated by the Fas ligand, mice were pre-treated with MSO as described above, and at time zero were injected with Jo2 antibody ([…]).
# Animals were monitored continuously post LPS/D-GalN or Jo2 administration. […] The time of death was recorded as hours after LPS/D-GalN injection. Fisher's exact test was used to determine two-tailed p values for the statistical between the treated and untreated groups.
# peritoneal macrophages [3] = details: for TNF-α in culture supernatant, average ELISA value: four hours after LPS, LPS control 527
# Description: Peritoneal macrophages were isolated from the abdomens of CD-1 mice, and 2×10^4 cells were added to each well of a 6-well cell culture plate. The cells were incubated in RPMI—1640 (with 2.05 mM glutamine) with 5% fetal calf serum and 1% penicillin/streptomycin (all solutions were from Hyclone) for 4 hours. The medium was then changed to remove any non-adherent cells, and the cells were again incubated in a 5% CO2 incubator for 16 hours. In each plate, one well was a negative control (no treatment), one well was a MSO control (9 mM) and one well was a LPS control (1 μg/ml LPS). The other three wells were treated with 9 mM MSO and 1 μg/ml LPS. One well was treated with MSO for 3 hours, and LPS was then added. In another well, LPS and MSO were added at the same time. Time of LPS addition was considered time zero. Four hours after LPS addition the cell culture medium was collected and 50 μL of the medium was mixed with 50 μl of blocking buffer and used for the TNF-α ELISA assay.
# as §6
# [4] = i.p. injection of 50 mg/kg
smiles,measurement,setting,value
"CS(=N)(=O)CC[C@H](N)C(=O)O (some centres unmarked) [MSO, methionine sulfoximine]",increase in STAT1 activation by LPS/D-GalN,STAT1,eliminated
same,phosphorylated STAT3,STAT3,decreased
same,caspase-3 activation,caspase-3,completely prevented
same,"plasma IL-6 level, peak, mean ± SEM",IL-6,325 ± 27 pg/mL
same,plasma TNF-α level throughout the time course,TNF-α; 1 to 5 hours after LPS/D-GalN,< 200 pg/mL
same,"plasma TNF-α level, peak, mean ± SEM","TNF-α; 1 hour after LPS/D-GalN, saline pretreated 590±91, p<0.001",112 ± 35 pg/mL
same,plasma TNF-α level in control mice,"TNF-α; t=0, injected three hours previously, not exposed to LPS/D-GalN, n=7",not detectable
same,effect on cell viability (trypan blue),peritoneal macrophages [1],no effect
same,glutamine synthetase activity relative to animals pre-treated with saline,"glutamine synthetase; liver extracts, 50 mg/kg IP three hours prior to LPS/D-GalN, all time points",less than 10%
same,inhibition of glutamine synthetase in the liver,glutamine synthetase; long term MSO treatment,90%
same,female survival,"[2]; female CD1 mice, n=14, without pretreatment 27%, p<0.005",81%
same,male survival,"[2]; male CD1 mice, n=21, without pretreatment 19%, p<0.002",71%
same,"TNF-α in culture supernatant, average ELISA value",peritoneal macrophages [3]; 9 mM MSO added at the same time as LPS (1 μg/ml),442 pg/50 μL
same,"TNF-α in culture supernatant, average ELISA value",peritoneal macrophages [3]; 9 mM MSO added one hour after LPS (1 μg/ml),430 pg/50 μL
same,"TNF-α in culture supernatant, average ELISA value","peritoneal macrophages [3]; 9 mM MSO added three hours before LPS (1 μg/ml), 2 mM glutamine",393 pg/50 μL
same,average reductions in TNF-α,"peritoneal macrophages [3]; 9 mM MSO, depending upon the time of addition",16-25%
same,lowering of plasma glutamine concentrations,[4],about 50%

# Source: patent publication US9119821B2, “Use of methionine sulfoximine to treat acute liver failure and other diseases caused by an inflammatory cytokine response” (priority 2010, dated 2015)
